According to patent US12344597B2, “Alkoxy-substituted pyridinyl derivatives as LPA1 receptor antagonists and their use in the treatment of fibrosis” (IDORSIA PHARMACEUTICALS LTD, priority 2018, dated 2025):

Molecular target: human LPA1 receptor (Homo sapiens (Human), UniProt Q92633)
Test: Beta-arrestin recruitment assay to determine IC50 values for human LPAR1
Assay type: cell-based
Conditions: antagonist mode, Tango EDG2-bla U2OS cells, LPA 18:1 500 nM final
In short: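 Tango EDG2-bla U2OS cells: LPA-driven beta-arrestin/TEV protease recruitment releases Gal4-VP16, inducing beta-lactamase reporter read with live-cell substrate. Cells seeded 20 h at 37 °C beforehand. IC50 is antagonist concentration inhibiting 50% of maximal response.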

Chain of human LPA1 receptor (Q92633 whole entry): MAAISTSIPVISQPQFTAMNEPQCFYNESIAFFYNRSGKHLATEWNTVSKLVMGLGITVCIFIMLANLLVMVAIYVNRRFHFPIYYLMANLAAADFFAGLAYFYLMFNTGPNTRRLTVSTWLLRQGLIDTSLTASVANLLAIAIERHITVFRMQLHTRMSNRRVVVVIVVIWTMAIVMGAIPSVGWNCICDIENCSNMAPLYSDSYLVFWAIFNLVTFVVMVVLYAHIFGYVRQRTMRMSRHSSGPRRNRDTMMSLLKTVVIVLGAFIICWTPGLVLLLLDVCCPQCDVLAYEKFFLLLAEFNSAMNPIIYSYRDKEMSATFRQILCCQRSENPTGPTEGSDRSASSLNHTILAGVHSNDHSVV

Compound	IC50 [nM]
Cc1ccc(NC(=O)C2(c3ccccc3C(C)C)CN(CC3COC3)C2)c(OC(F)F)n1 [Ex 11-5, N-(2-(difluoromethoxy)-6-methylpyridin-3-yl)-3-(2-isopropylphenyl)-1-(oxetan-3-ylmethyl)azetidine-3-carboxamide]	29
2-(2-(3-((2-(difluoromethoxy)-6-methylpyridin-3-yl)carbamoyl)-3-(2-isopropylphenyl)azetidin-1-yl)ethoxy)-2-methylpropanoic acid [Ex 40]	29
COc1cnc(NC(=O)C2(c3ccccc3C(C)C)CNC2)c(OC)c1 [Ex 75, N-(3,5-dimethoxypyridin-2-yl)-3-(2-isopropylphenyl)azetidine-3-carboxamide]	4380
Cc1ccc(NC(=O)C2(c3ccccc3C(C)C)CN(C(=O)CC(F)(F)C(=O)O)C2)c(OC(F)F)n1 [Ex 12-112, 4-(3-((2-(difluoromethoxy)-6-methylpyridin-3-yl)carbamoyl)-3-(2-isopropylphenyl)azetidin-1-yl)-2,2-difluoro-4-oxobutanoic acid]	39
Cc1ccc(NC(=O)C2(c3ccccc3C(C)C)CN(C(=O)C(F)(F)CC(=O)O)C2)c(OC(F)F)n1 [Ex 12-115, 4-(3-((2-(difluoromethoxy)-6-methylpyridin-3-yl)carbamoyl)-3-(2-isopropylphenyl)azetidin-1-yl)-3,3-difluoro-4-oxobutanoic acid]	7
Cc1ccc(NC(=O)C2(c3ccccc3C(C)C)CN(C3COC3)C2)c(OC(F)F)n1 [Ex 11-20, N-(2-(difluoromethoxy)-6-methylpyridin-3-yl)-3-(2-isopropylphenyl)-1-(oxetan-3-yl)azetidine-3-carboxamide]	6
CCOC(=O)/C=C\C(=O)N1CC(C(=O)Nc2ccc(C)nc2OC(F)F)(c2ccccc2C(C)C)C1 [Ex 12-76, ethyl (Z)-4-(3-((2-(difluoromethoxy)-6-methylpyridin-3-yl)carbamoyl)-3-(2-isopropylphenyl)azetidin-1-yl)-4-oxobut-2-enoate]	7
Cc1ccc(NC(=O)C2(c3ccccc3C(C)C)CN(C(=O)C[C@H](O)C(=O)O)C2)c(OC(F)F)n1 [Ex 12-34, (S)-4-(3-((2-(difluoromethoxy)-6-methylpyridin-3-yl)carbamoyl)-3-(2-isopropylphenyl)azetidin-1-yl)-2-hydroxy-4-oxobutanoic acid]	33
CCOC(=O)CN(C)CCN1CC(C(=O)Nc2ccc(C)nc2OC(F)F)(c2ccccc2C(C)C)C1 [Ex 11-81, Ethyl N-(2-(3-((2-(difluoromethoxy)-6-methylpyridin-3-yl)carbamoyl)-3-(2-isopropylphenyl)azetidin-1-yl)ethyl)-N-methylglycinate]	88
CCOC(=O)C[C@H](N)C(=O)N1CC(C(=O)Nc2ccc(C)nc2OC(F)F)(c2ccccc2C(C)C)C1 [Ex 12-100, ethyl (S)-3-amino-4-(3-((2-(difluoromethoxy)-6-methylpyridin-3-yl)carbamoyl)-3-(2-isopropylphenyl)azetidin-1-yl)-4-oxobutanoate]	23
COc1ccc(NC(=O)C2(c3ccccc3C(C)C)CN(C(=O)CC(C)(C)C(=O)O)C2)c(OC)n1 [Ex 12-86, 4-(3-((2,6-dimethoxypyridin-3-yl)carbamoyl)-3-(2-isopropylphenyl)azetidin-1-yl)-2,2-dimethyl-4-oxobutanoic acid]	27
Cc1ccc(NC(=O)C2(c3ccccc3C(C)C)CN(C(=O)CCC(=O)O)C2)c(OC(F)F)n1 [Ex 12-71, 4-(3-((2-(difluoromethoxy)-6-methylpyridin-3-yl)carbamoyl)-3-(2-isopropylphenyl)azetidin-1-yl)-4-oxobutanoic acid]	10
CCOC(=O)Cc1coc(CN2CC(C(=O)Nc3ccc(C)nc3OC(F)F)(c3ccccc3C(C)C)C2)n1 [Ex 11-58, ethyl 2-(2-((3-((2-(difluoromethoxy)-6-methylpyridin-3-yl)carbamoyl)-3-(2-isopropylphenyl)azetidin-1-yl)methyl)oxazol-4-yl)acetate]	68
COC(=O)C(C)(C)CC(=O)N1CC(C(=O)Nc2ccc(C)nc2OC(F)F)(c2ccccc2C(C)C)C1 [Ex 12-81, methyl 4-(3-((2-(difluoromethoxy)-6-methylpyridin-3-yl)carbamoyl)-3-(2-isopropylphenyl)azetidin-1-yl)-2,2-dimethyl-4-oxobutanoate]	34
Cc1ccc(NC(=O)C2(c3ccccc3C(C)C)CN(C(=O)CCOCCOCC(=O)O)C2)c(OC(F)F)n1 [Ex 12-121, 2-(2-(3-(3-((2-(difluoromethoxy)-6-methylpyridin-3-yl)carbamoyl)-3-(2-isopropylphenyl)azetidin-1-yl)-3-oxopropoxy)ethoxy)acetic acid]	310
Cc1ccc(NC(=O)C2(c3ccccc3C(C)C)CN(C(=O)CNCC(C)(C)C(=O)O)C2)c(OC(F)F)n1 [Ex 45, 3-((2-(3-((2-(difluoromethoxy)-6-methylpyridin-3-yl)carbamoyl)-3-(2-isopropylphenyl)azetidin-1-yl)-2-oxoethyl)amino)-2,2-dimethylpropanoic acid]	63
Cc1ccc(NC(=O)C2(c3ccccc3C(C)C)CN(Cc3ccnn3C)C2)c(OC(F)F)n1 [Ex 11-22, N-(2-(difluoromethoxy)-6-methylpyridin-3-yl)-3-(2-isopropylphenyl)-1-((1-methyl-1H-pyrazol-5-yl)methyl)azetidine-3-carboxamide]	108

Other lines, results leading:

IC50 [nM]	Compound
61	Cc1cnc(NC(=O)C2(c3ccccc3C(C)C)CN(C(=O)CC3(C(=O)O)CCC3)C2)c(OC(F)F)c1 [Ex 79-7, 1-(2-(3-((3-(difluoromethoxy)-5-methylpyridin-2-yl)carbamoyl)-3-(2-isopropylphenyl)azetidin-1-yl)-2-oxoethyl)cyclobutane-1-carboxylic acid]
7	COC(=O)C1(CNC(=O)N2CC(C(=O)Nc3ccc(C)nc3OC(F)F)(c3ccccc3C(C)C)C2)CC1 [Ex 17-14, methyl 1-((3-((2-(difluoromethoxy)-6-methylpyridin-3-yl)carbamoyl)-3-(2-isopropylphenyl)azetidine-1-carboxamido)methyl)cyclopropane-1-carboxylate]
10	COC(=O)c1cnc(N2CC(C(=O)Nc3ccc(C)nc3OC(F)F)(c3ccccc3C(C)C)C2)cn1 [Ex 18-8, methyl 5-(3-((2-(difluoromethoxy)-6-methylpyridin-3-yl)carbamoyl)-3-(2-isopropylphenyl)azetidin-1-yl)pyrazine-2-carboxylate]
5	Cc1ccc(NC(=O)C2(c3ccccc3C(C)C)CN(C(=O)OCC3(C(=O)O)CC3)C2)c(OC(F)F)n1 [Ex 14-12, 1-(((3-((2-(difluoromethoxy)-6-methylpyridin-3-yl)carbamoyl)-3-(2-isopropylphenyl)azetidine-1-carbonyl)oxy)methyl)cyclopropane-1-carboxylic acid]
6	Cc1ccc(NC(=O)C2(c3ccccc3C(C)C)CN(c3nc(C(=O)O)co3)C2)c(OC(F)F)n1 [Ex 18-28, 2-(3-((2-(difluoromethoxy)-6-methylpyridin-3-yl)carbamoyl)-3-(2-isopropylphenyl)azetidin-1-yl)oxazole-4-carboxylic acid]
42	COC(=O)C(C)(C)COC(=O)N1CC(C(=O)Nc2ccc(C)nc2OC(F)F)(c2ccccc2C(C)C)C1 [Ex 14-9, 3-methoxy-2,2-dimethyl-3-oxopropyl 3-((2-(difluoromethoxy)-6-methylpyridin-3-yl)carbamoyl)-3-(2-isopropylphenyl)azetidine-1-carboxylate]
270	COC(=O)c1[nH]ncc1S(=O)(=O)N1CC(C(=O)Nc2ccc(C)nc2OC(F)F)(c2ccccc2C(C)C)C1 [Ex 13-22, methyl 4-((3-((2-(difluoromethoxy)-6-methylpyridin-3-yl)carbamoyl)-3-(2-isopropylphenyl)azetidin-1-yl)sulfonyl)-1H-pyrazole-5-carboxylate]
4	COc1ccc(NC(=O)C2(c3ccccc3C(C)C)CN(S(N)(=O)=O)C2)c(OC)n1 [Ex 15-7, N-(2,6-dimethoxypyridin-3-yl)-3-(2-isopropylphenyl)-1-sulfamoylazetidine-3-carboxamide]
47	Cc1ccc(NC(=O)C2(c3ccccc3C(C)C)CN(c3nccc(C(=O)O)n3)C2)c(OC(F)F)n1 [Ex 18-15, 2-(3-((2-(difluoromethoxy)-6-methylpyridin-3-yl)carbamoyl)-3-(2-isopropylphenyl)azetidin-1-yl)pyrimidine-4-carboxylic acid]
2	Cc1ccc(NC(=O)C2(c3ccccc3C(C)C)CN(c3ccncc3F)C2)c(OC(F)F)n1 [Ex 18-19, N-(2-(difluoromethoxy)-6-methylpyridin-3-yl)-1-(3-fluoropyridin-4-yl)-3-(2-isopropylphenyl)azetidine-3-carboxamide]
280	COC(=O)C1(CS(=O)(=O)N2CC(C(=O)Nc3ccc(C)nc3OC(F)F)(c3ccccc3C(C)C)C2)COC1 [Ex 13-15, methyl 3-(((3-((2-(difluoromethoxy)-6-methylpyridin-3-yl)carbamoyl)-3-(2-isopropylphenyl)azetidin-1-yl)sulfonyl)methyl)oxetane-3-carboxylate]
79	COC(=O)C1(OC(=O)N2CC(C(=O)Nc3ccc(C)nc3OC(F)F)(c3ccccc3C(C)C)C2)CC1 [Ex 14-7, 1-(methoxycarbonyl)cyclopropyl 3-((2-(difluoromethoxy)-6-methylpyridin-3-yl)carbamoyl)-3-(2-isopropylphenyl)azetidine-1-carboxylate]
5	C=C(C)C(=O)OCCNC(=O)N1CCC(C(=O)Nc2ccc(C)nc2OC(F)F)(c2ccccc2C(C)C)CC1 [Ex 17-21, 2-(4-((2-(difluoromethoxy)-6-methylpyridin-3-yl)carbamoyl)-4-(2-isopropylphenyl)piperidine-1-carboxamido)ethyl methacrylate]
18	COC(=O)/C=C/S(=O)(=O)N1CC(C(=O)Nc2ccc(C)nc2OC(F)F)(c2ccccc2C(C)C)C1 [Ex 13-20, methyl (E)-3-((3-((2-(difluoromethoxy)-6-methylpyridin-3-yl)carbamoyl)-3-(2-isopropylphenyl)azetidin-1-yl)sulfonyl)acrylate]
